Measured values as given in patent publication US6818665B2, “Treatment of obstructive sleep apnea” (priority 2003, dated 2004).

Test system: OSA patients
Test: oximeter tests / sleeping registration of OSA patients
Format: in vivo
Excerpt: The medical treatment of OSA must be effective, inexpensive and without any side effects because it must be ongoing for the rest of the patient's life during the sleeping period regardless of the time of the day or night. By conducting regular oximeter tests in connection with the fitting of mechanical assistance, it has been concluded that anti-oxidants, such as tokoferole, has some effect. Hormones that govern the sleep initiation during for example, jet lag, such melatonin that is formed in a gland from the amino-acid tryptophane with serotonin as an intermediate step. […] The corresponding effect has been noticed when the intake has stopped and this effect is normally quicker.
DHEA prevents unwanted complete or total (100%) relaxation of the muscles in the throat region caused melatonin. […] ACTH may be used to increase the production of DHEA. Melatonin may be taken as tablets and lasts about 24 hours. Preferably, melatonin is taken at night. A suitable melatonin dose may be about 0.5-5 mg. DHEA may also be taken as tablets and lasts about 24 hours. Preferably, DHEA is taken in the morning. A suitable DHEA dose may be about 1-5 mg. Of course, melatonin and DHEA may be administered at other times of the day.

Compound: tokoferole
- effect in regular oximeter tests (anti-oxidants, oximeter tests in connection with the fitting of mechanical assistance): some effect

Compound: COc1ccc2[nH]cc(CCNC(C)=O)c2c1 [melatonin, 5-metoxy-N-acetyletryptamine]
- effect on the sleeping registration of OSA patients (number of desaturations and level of SpO2 reduction below 90%) (low dose 0.5-5 mg depending on age, 10-80 years): distinct effect
- time to optimal effect (regular intake): after a couple of weeks

Compound: C[C@]12CC[C@H](O)CC1=CC[C@@H]1[C@@H]2CC[C@]2(C)C(=O)CC[C@@H]12 [DHEA, dehydroepiandrosterone]
- effect of parallel intake on the desired effect (reduced desaturations and SpO2 reduction) (parallel intake with melatonin, especially in combination with ACTH): synergistic increase of the desired effect
